Laboratory results from patent US20090137577A1, “HETEROCYCLIC COMPOUNDS” (Pfizer Inc., priority 2007, published 2009).

Biological target: T1, mGluR2 receptor (metabotropic glutamate receptor 2) (Homo sapiens, UniProt Q14416)
T1 construct: expressed in transfected cells
Assay: mGluR2 potentiator screen (FLIPR, EC10-EC20 glutamate challenge);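 note: HEK cells stably expressing human mGluR2 with GL15 G protein, Fluo-4 calcium fluorescence read on FLIPR, compounds added before an EC10-EC20 glutamate challenge to detect potentiation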
Assay type: cell-based
Conditions: geometric mean; read-out: mGluR 2 EC50 (geometric mean)

T1 sequence (Q14416 19-872, species assumed): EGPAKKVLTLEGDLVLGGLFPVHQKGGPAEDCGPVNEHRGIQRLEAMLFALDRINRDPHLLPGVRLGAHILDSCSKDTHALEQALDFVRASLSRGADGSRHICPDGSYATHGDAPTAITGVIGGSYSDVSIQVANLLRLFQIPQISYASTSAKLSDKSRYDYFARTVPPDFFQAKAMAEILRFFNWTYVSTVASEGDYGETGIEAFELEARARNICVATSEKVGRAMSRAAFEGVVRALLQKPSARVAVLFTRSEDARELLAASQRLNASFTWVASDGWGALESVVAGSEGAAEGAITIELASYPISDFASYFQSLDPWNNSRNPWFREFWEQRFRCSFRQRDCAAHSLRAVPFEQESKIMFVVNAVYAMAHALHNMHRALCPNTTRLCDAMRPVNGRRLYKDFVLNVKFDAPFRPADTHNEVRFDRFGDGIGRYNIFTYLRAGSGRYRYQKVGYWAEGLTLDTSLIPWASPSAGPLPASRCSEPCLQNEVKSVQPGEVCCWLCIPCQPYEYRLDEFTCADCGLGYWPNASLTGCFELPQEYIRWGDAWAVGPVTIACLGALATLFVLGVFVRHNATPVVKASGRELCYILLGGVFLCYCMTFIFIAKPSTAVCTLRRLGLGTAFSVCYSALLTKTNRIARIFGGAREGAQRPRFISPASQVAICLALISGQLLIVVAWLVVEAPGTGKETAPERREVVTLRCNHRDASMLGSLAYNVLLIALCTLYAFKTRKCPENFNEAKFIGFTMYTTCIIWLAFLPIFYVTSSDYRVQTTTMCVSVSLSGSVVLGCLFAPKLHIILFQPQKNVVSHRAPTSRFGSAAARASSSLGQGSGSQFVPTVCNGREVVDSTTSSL

| EC50 | Structure (SMILES) |
| --- | --- |
| 804 nM | Cc1cc(C)n(-c2cccc(-c3ccc(CN4C[C@@H](C)OC4=O)cc3)c2)n1 [Example 199] |
| 191 nM | CC(C)CN1CCN(Cc2ccc(OC(C)C3CCCCC3)cc2)C(=O)C1 (centres unmarked) [Example 200] |
| 763 nM | CC(Oc1ccc(CN2CCN(C(C)C)CC2=O)cc1)C1CCCCC1 (centres unmarked) [Example 201] |
| 291 nM | CC(Oc1ccc(CN2CCN(CC3CCCC3)CC2=O)cc1)C1CCCCC1 (centres unmarked) [Example 202] |
| 24.8 nM | C[C@@H]1CN(Cc2ccc(OCCCc3ccccc3)cc2)C(=O)O1 [Example 204, (5R)-5-methyl-3-[4-(3-phenylpropoxy)benzyl]-1,3-oxazolidin-2-one] |
| 68 nM | Cc1ccc(F)cc1COc1ccc(CN2C[C@@H](C)OC2=O)cc1 [Example 205] |
| 29.9 nM | C[C@@H]1CN(Cc2ccc(OCCCOc3ccc(F)cc3)cc2)C(=O)O1 [Example 206] |
| 63.5 nM | CC(Oc1ccc(CN2CC(c3ccccn3)OC2=O)cc1)C1CCCCC1 (centres unmarked) [Example 207] |
| 41.6 nM | CC(Oc1ccc(CN2CC(c3cccnc3)OC2=O)cc1)C1CCCCC1 (centres unmarked) [Example 208] |
| 639 nM | CC(Oc1ccc(CN2CC(c3ccncc3)OC2=O)cc1)C1CCCCC1 (centres unmarked) [Example 209] |
| 424 nM | C[C@@H]1CN(Cc2ccc(-c3ccc(Cl)cc3F)nc2)C(=O)O1 [Example 210, (5R)-3-{[6-(4-Chloro-2-fluorophenyl)pyridin-3-yl]methyl}-5-methyl-1,3-oxazolidin-2-one] |
| 77.8 nM | CCC(C)CCOc1ccc(CN2C[C@@H](C)OC2=O)cc1 (some centres unmarked) [Example 212] |
| 20.1 nM | C[C@@H]1CN(Cc2ccc(OCCC(C)(C)C)cc2)C(=O)O1 [Example 213] |
| 712 nM | CCCC(C)CN1CCN(Cc2ccc(OC(C)C3CCCCC3)cc2)C(=O)C1 (centres unmarked) [Example 214] |
| 435 nM | CCCN1CCN(Cc2ccc(OC(C)C3CCCCC3)cc2)C(=O)C1 (centres unmarked) [Example 215] |
| 471 nM | Cc1ccc(CN2CCN(Cc3ccc(OC(C)C4CCCCC4)cc3)C(=O)C2)cc1 (centres unmarked) [Example 216] |
| 947 nM | CCC(CC)CN1CCN(Cc2ccc(OC(C)C3CCCCC3)cc2)C(=O)C1 (centres unmarked) [Example 217] |
| 681 nM | CC(Oc1ccc(CN2CCN(CCCC(F)(F)F)CC2=O)cc1)C1CCCCC1 (centres unmarked) [Example 218] |
| 697 nM | CC(Oc1ccc(CN2CCN(C(C)CC3CC3)CC2=O)cc1)C1CCCCC1 (centres unmarked) [Example 219] |
| 801 nM | CC(C)CCN1CCN(Cc2ccc(OC(C)C3CCCCC3)cc2)C(=O)C1 (centres unmarked) [Example 220] |
| 794 nM | CC(Oc1ccc(CN2CCN(C(C)C3CCC3)CC2=O)cc1)C1CCCCC1 (centres unmarked) [Example 221] |
| 325 nM | CC(Oc1ccc(CN2CCN(CCC(F)(F)F)CC2=O)cc1)C1CCCCC1 (centres unmarked) [Example 222] |
| 584 nM | CC(Oc1ccc(CN2CCN(CC(C)(C)C)CC2=O)cc1)C1CCCCC1 (centres unmarked) [Example 223] |
| 1100 nM | CC(Oc1ccc(CN2CCN(C3CC[C@@H](C)C3)CC2=O)cc1)C1CCCCC1 (some centres unmarked) [Example 224] |
| 638 nM | CC1CCCC1N1CCN(Cc2ccc(OC(C)C3CCCCC3)cc2)C(=O)C1 (centres unmarked) [Example 225] |
| 196 nM | C[C@@H]1CN(Cc2ccc(OCC3CCCCC3)c(F)c2)C(=O)O1 [Example 227, (5R)-3-[4-(cyclohexylmethoxy)-3-fluorobenzyl]-5-methyl-1,3-oxazolidin-2-one] |
| 870 nM | C[C@@H]1CN(Cc2ccc(OCc3ccc(C(F)(F)F)cc3F)c(F)c2)C(=O)O1 [Example 228, (5R)-3-(3-fluoro-4-{[2-fluoro-4-(trifluoromethyl)benzyl]oxy}benzyl)-5-methyl-1,3-oxazolidin-2-one] |

| EC50 | Structure (SMILES) |
| --- | --- |
| 757 nM | C[C@@H]1CN(Cc2ccc(OCCCOc3ccc(F)cc3)nc2)C(=O)O1 [Example 229, (5R)-3-({6-[3-(4-fluorophenoxy)propoxy]pyridin-3-yl}methyl)-5-methyl-1,3-oxazolidin-2-one] |
| < 21.6 nM | CC(Oc1ccc(CN2C[C@@H](C)OC2=O)cc1F)C1CCCCC1 (stereo partly drawn) [Example 230, (5R)-3-[4-(1-Cyclohexylethoxy)-3-fluorobenzyl]-5-methyl-1,3-oxazolidin-2-one] |
| 683 nM | C[C@@H]1CN(Cc2ccc(-c3cc(C#N)ccc3Cl)cc2)C(=O)O1 [Example 231] |
| < 39.2 nM | Cc1ccc(-c2ccc(CN3C[C@@H](C)OC3=O)cc2)c(F)c1 [Example 232] |
| 45.6 nM | Cc1ccc(Cl)cc1-c1ccc(CN2C[C@@H](C)OC2=O)cc1 [Example 233] |
| < 34.5 nM | C[C@@H]1CN(Cc2ccc(-c3ccc(C(F)(F)F)cc3F)cc2)C(=O)O1 [Example 234] |
| < 23.5 nM | C[C@@H]1CN(Cc2ccc(-c3cccc(Cl)c3F)cc2)C(=O)O1 [Example 235] |
| 49 nM | Cc1cc(Cl)ccc1-c1ccc(CN2C[C@@H](C)OC2=O)cc1 [Example 236] |
| 112 nM | C[C@@H]1CN(Cc2ccc(-c3ccc(Cl)c(F)c3)cc2)C(=O)O1 [Example 237] |
| < 105 nM | COc1cc(F)ccc1-c1ccc(CN2C[C@@H](C)OC2=O)cc1 [Example 239] |
| 120 nM | COc1ccc(F)c(-c2ccc(CN3C[C@@H](C)OC3=O)cc2)c1 [Example 240] |
| 418 nM | C[C@@H]1CN(Cc2ccc(OCCC3CCCCC3)c(F)c2)C(=O)O1 [Example 241, (5R)-3-[4-(2-cyclohexylethoxy)-3-fluorobenzyl]-5-methyl-1,3-oxazolidin-2-one] |
| < 17.2 nM | COc1ccc(-c2ccc(CN3C[C@@H](C)OC3=O)cc2)c(F)c1F [Example 242] |
| < 25.3 nM | COc1ccc(F)c(F)c1-c1ccc(CN2C[C@@H](C)OC2=O)cc1 [Example 243] |
| 97.2 nM | C[C@@H]1CN(Cc2ccc(-c3cccc(F)c3F)cc2)C(=O)O1 [Example 244] |
| 92.9 nM | C[C@@H]1CN(Cc2ccc(-c3ccc(F)c(F)c3)cc2)C(=O)O1 [Example 245] |
| 445 nM | C[C@@H]1CN(Cc2ccc(-c3cc(F)cc(F)c3)cc2)C(=O)O1 [Example 246] |
| 211 nM | C[C@@H]1CN(Cc2ccc(-c3c(F)cccc3F)cc2)C(=O)O1 [Example 247] |
| 53.7 nM | Cc1ccc(F)cc1-c1ccc(CN2C[C@@H](C)OC2=O)cc1 [Example 248] |
| < 28.4 nM | C[C@@H]1CN(Cc2ccc(-c3ccc(F)cc3F)cc2F)C(=O)O1 [Example 249, (5R)-5-methyl-3-[(2′,3,4′-trifluorobiphenyl-4-yl)methyl]-1,3-oxazolidin-2-one] |
| 1870 nM | Cc1cc(CN2CC(c3cccnc3)OC2=O)ccc1OCC1CCCCC1 (centres unmarked) [Example 250, 3-[4-(Cyclohexylmethoxy)-3-methylbenzyl]-5-pyridin-3-yl-1,3-oxazolidin-2-one] |
| 55.9 nM | C[C@@H]1CN(Cc2ccc(-c3cccc(F)c3Cl)cc2F)C(=O)O1 [Example 251] |
| 29.3 nM | C[C@@H]1CN(Cc2ccc(-c3ccc(C(F)(F)F)cc3F)cc2F)C(=O)O1 [Example 252] |
| 135 nM | COc1c(-c2ccc(F)cc2)ccc(CN2C[C@@H](C)OC2=O)c1F [Example 253] |
| 71.2 nM | Cc1cc(CN2C[C@@H](C)OC2=O)ccc1OCC1CCCCC1 [Example 254, (5R)-3-[4-(Cyclohexylmethoxy)-3-methylbenzyl]-5-methyl-1,3-oxazolidin-2-one] |
| 463 nM | C[C@@H]1CN(Cc2ccc(-c3ccc(OC(F)(F)F)cc3)nc2)C(=O)O1 [Example 255, (5R)-5-methyl-3-({6-[4-(trifluoromethoxy)phenyl]pyridin-3-yl}methyl)-1,3-oxazolidin-2-one] |
